Test results as given in US8779158B2, “Trisubstituted pyrazoles as acetylcholine receptor modulators” (Janssen Pharmaceutica NV, priority 2008, dated 2014).
pEC50: −log10 of the molar value.

Legend:
[1] = molecular target: T1, hα7-wt nAChR-expressing GH4C1 cells (Homo sapiens, UniProt P36544); assay: Patch-clamp current recording (whole-cell voltage clamp), potentiation of the choline current and PAM type; format: cell-based; set-up: key: Type 0 compounds minimally enhance the effect size of the current elicited by 1 mM choline.; Type 1 compounds enhance the effect size of the current elicited by 1 mM choline but minimally alter the kinetics of the receptor.; Type 2 compounds enhance the effect size of the current elicited by 1 mM choline while reducing the rate and/or the extent of desensitization.; Type 3 compounds enhance the effect size of the current elicited by 1 mM choline. When tested at higher concentrations up to 10 μM they completely inhibit desensitization, in particular a 1 mM choline application of 250 milliseconds.; Type 4 compounds allow for an initial desensitization of the receptor followed by a re-opening of the receptor during agonist application; settings: 1 mM choline
T1 construct: expressed in transfected cells
T1 sequence (P36544 23-502): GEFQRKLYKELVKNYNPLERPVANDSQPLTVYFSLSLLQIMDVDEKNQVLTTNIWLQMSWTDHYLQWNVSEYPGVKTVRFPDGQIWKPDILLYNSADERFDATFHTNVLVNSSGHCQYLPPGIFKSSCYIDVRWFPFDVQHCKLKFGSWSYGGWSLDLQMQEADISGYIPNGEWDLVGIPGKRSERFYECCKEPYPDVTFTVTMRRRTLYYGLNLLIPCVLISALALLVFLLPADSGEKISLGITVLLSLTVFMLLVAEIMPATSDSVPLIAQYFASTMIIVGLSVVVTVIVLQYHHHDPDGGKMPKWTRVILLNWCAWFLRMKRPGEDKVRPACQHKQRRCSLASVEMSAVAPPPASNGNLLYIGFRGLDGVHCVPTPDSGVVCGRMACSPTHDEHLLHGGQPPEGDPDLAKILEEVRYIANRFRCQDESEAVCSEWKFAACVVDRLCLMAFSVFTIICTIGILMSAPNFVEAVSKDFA
Protocol: The compounds of the present invention are classified as type 1-4, based on qualitative kinetic properties, as determined by whole-cell voltage-clamp recordings. This classification is based on the effect of an α7 PAM compound, as described hereinbefore, on the signal elicited by an agonist application. In particular, said agonist is choline at a concentration of 1 mM. In a preferred experimental setting, said α7 PAM compound and choline are simultaneously applied to the cell, as described hereinafter. Desensitization is defined as the closure of the receptor upon activation during the application of the agonist in whole-cell voltage-clamp electrophysiology measurements seen as the reduction of the […] current after initial activation by the agonist.
The definition of the PAM types 1-4 is described hereinafter: • Type 0 compounds minimally enhance the effect size of the current elicited by 1 mM choline. • Type 1 compounds enhance the effect size of the current elicited by 1 mM choline but minimally alter the kinetics of the receptor. In particular, the rate and the extent of desensitization, elicited by the agonist, is not affected. The compound-modulated response to 1 mM choline, therefore, is a close to linear scaling of the 1 mM choline response in absence of the α7 PAM compound. • Type 2 compounds enhance the effect size of the current elicited by 1 mM choline while reducing the rate and/or the extent of desensitization. • Type 3 compounds enhance the effect size of the current elicited by 1 mM choline. […] At low-potency concentrations of the α7 PAM compound, the agonist-induced activation, which is followed by desensitization, can still be separated from the compound-induced re-opening as an initial inward current-maximum. At higher potency concentrations of the α7 PAM compound, the re-opening occurs faster than the closure due to desensitization so that the initial current-maximum disappears.
A compound was considered to have interesting PAM-like activity when the potentiation of the peak current was at least 200% compared to the control choline response (=100%). Such compounds are classified as belonging to a particular PAM type in the Experimental Part. Compounds not meeting the condition are not classified as belonging to a particular PAM-type.
The compounds also have a potentiating effect on the response to choline when measured by whole-cell patch clamp electrophysiology in GH4C1 cells stably over-expressing the human wild-type α7 receptor.
Patch-Clamp Current Recording
Patch-clamp recording from mammalian cells has provided a powerful means of assessing the function of membrane-bound proteins thought to be subunits of ligand-gated ion channels. Activation of such proteins by endogenous or exogenous ligands cause opening of a pore associated with the receptor through which ions flow down their electrochemical gradient. In the case of the hα7-wt nAChR-expressing GH4C1 recombinant cell line the preferential permeability to calcium of this receptor means that calcium flows into the cell upon activation by ACh, choline and other nicotinic ligands giving rise to a calcium current. Since this receptor rapidly desensitizes in the presence of agonist it is important an application system is used which is capable of very rapid switching of solutions (<100 ms) to prevent partial or full desensitisation of receptor responses coincident with the time of agonist application. Consequently, a second convenient technique to assess the enhancement of nicotinic efficacy is patch-clamp recording from hα7-wt nAChR-expressing GH4C1 cells coupled with a rapid-application system.
• The external recording solution consisted of 152 mM NaCl, 5 mM KCl, 1 mM MgCl2, 1 mM Calcium, 10 mM HEPES; pH 7.3. […]

hα7-wt nAChR = molecular target: T2, hα7-wt nAChR (Homo sapiens, UniProt P36544); assay: Ca2+ flux imaging (FDSS) (Protocol B), potentiation of the choline response; format: cell-based; settings: Ca2+ assay as described in D.1; for pEC50: "<5" = activity did not reach a top plateau at maximal concentration; for Emax: read-out: % Efficacy
T2 construct: expressed in transfected cells
T2 sequence (P36544 23-502): as above
Protocol: Ca^2+ Flux Imaging (FDSS) (Protocol B)
• Hanks buffered saline solution (HBSS, Invitrogen, Belgium), supplemented with 10 mM HEPES (Invitrogen, Belgium), CaCl2 to a final concentration of 5 mM, 0.1% Bovine serum albumin (Sigma-Aldrich NV, Belgium). b) Calcium-Sensitive Dye—Fluo-4AM • Fluo-4AM (Molecular Probes, USA) was dissolved in DMSO containing 10% Pluronic acid (Molecular Probes, USA) to give a stock solution which was diluted in assay buffer supplemented with 5 mM probenicid (Sigma, Aldrich NV, Belgium) to give a final concentration of 2 μM. c) 384-Well Plates • Black 384 well plate black/clear plates, PDL pre-coated (Corning, Incorporated, USA) d) Calcium Flux Measurement • A Functional drug screening system (FDSS, Hamamatsu) was used to measure intracellular free-calcium flux signals. Method
Monolayers of hα7-wt nAChR-expressing cells were grown in multi-well plates, in particular black-sided, transparent bottomed 384 well plates coated with poly-D-lysine for 24 hours prior to loading with a fluorescent calcium indicator, in a particular embodiment loading with fluo-4AM for up to 120 minutes.
PAM activity was detected in real time by applying the compounds to be tested to the loaded cells along with a α7 nicotinic receptor agonist during constant monitoring of cellular fluorescence in a FDSS. Compounds giving peak fluorescent responses greater than the response due to agonist alone, were considered to be α7 nAChR PAM's. In a particular embodiment, the α7 nicotinic receptor agonist was choline, a more particular embodiment choline applied at a sub-maximal concentration of 100 μM. In a further setting of the present invention the compounds to be tested were applied prior to the α7 nicotinic receptor agonist, in a particular embodiment up to 10 minutes prior to the agonist.
A control response to choline was calculated on each plate from the difference in peak in fluorescence in wells receiving either choline or assay buffer alone. Compounds of the present invention were tested at a concentration range from 0.01 μM to 30 μM. Compounds were considered to have an interesting activity when they potentiated the choline signal at least with 200% when tested at a concentration of 30 μM (the efficacy of 100 μM choline was defined as 100% in the absence of a PAM). An EC50 (or pEC50) was determined as a concentration relating to half the maximal effect, when a clear sigmoidal curve with top plateau was obtained.

SMILES | PAM type [1] | pEC50 (hα7-wt nAChR) | Emax (hα7-wt nAChR) [%]
CNC(=O)Cn1nc(Nc2ccc(F)c(F)c2F)cc1-c1ccnc(C)c1 [compound 107] | 2 | 5.73 | 907
CNC(=O)Cn1nc(Nc2cc(F)c(F)c(F)c2)cc1-c1ccc2c(c1)OCCO2 [compound 74] | 2 | 6.60 | –
COCc1cc(-c2cc(Nc3ccc(F)c(F)c3)nn2CCC(=O)N(C)C)ccn1 [compound 70] | 3 | 5.87 | –
CCNC(=O)Cn1nc(Nc2ccc(F)c(C(F)(F)F)c2)cc1-c1ccnc(C)c1 [compound 38] | 2 | 6.24 | –
COc1cc(Nc2cc(-c3ccnc(C)c3)n(CCC(=O)N(C)C)n2)cc(C(F)(F)F)c1 [compound 143] | 4 | 6.24 | –
Cc1ccc(-c2cc(Nc3ccc(F)c(C(F)(F)F)c3)nn2CCC(=O)N(C)C)cn1 [compound 28] | 4 | 6.11 | –
COc1cc(Nc2cc(-c3ccnc(C)c3)n(CC(=O)NCC3CC3)n2)cc(C(F)(F)F)c1 [compound 131] | 2 | 6.09 | –
CCNC(=O)Cn1nc(Nc2ccc(F)c(C(F)(F)F)c2)cc1-c1cc(C)nc(C)c1 [compound 152] | 2 | 6.33 | 856
CC[C@H](O)Cn1nc(Nc2cccc(Cl)c2)cc1-c1cc(C)nc(C)c1 [compound 58] | 1 | 6.12 | –
CCNC(=O)Cn1nc(Nc2cccc(Cl)c2)cc1-c1ccnc(C)c1 [compound 111] | 2 | 5.77 | –
CCNC(=O)Cn1nc(Nc2cccc(C(F)(F)F)c2)cc1-c1cc(C)nc(C)c1 [compound 155] | 2 | 6.26 | 576
CNC(=O)Cn1nc(Nc2ccc3c(c2)OC(F)(F)O3)cc1-c1cc(C)nc(C)c1 [compound 130] | 2 | 6.09 | 632
Cc1cc(-c2cc(Nc3cccc(Cl)c3F)nn2CC(=O)NCC2CC2)ccn1 [compound 170] | 2 | 6.73 | 783
CC[C@H](O)Cn1nc(Nc2cc(OC)cc(C(F)(F)F)c2)cc1-c1ccnc(C)c1 [compound 183] | 0 | 6.10 | –
CCNc1cc(-c2cc(Nc3ccc(F)c(F)c3)nn2C[C@H](C)O)ccn1 [compound 62] | 1 | 5.88 | –
CCNC(=O)Cn1nc(Nc2ccc3c(c2)OC(F)(F)O3)cc1-c1ccncc1C [compound 91] | 2 | 5.58 | –
COc1cc(Cl)cc(Nc2cc(-c3ccnc(C)c3)n(CC(=O)NCC3CC3)n2)c1 [compound 132] | 2 | 6.10 | –
C[C@H](O)Cn1nc(Nc2cc(F)c(F)c(F)c2)cc1-c1ccc2c(c1)OCCO2 [compound 85] | 0 | 5.96 | 400

SMILES | PAM type [1] | pEC50 (hα7-wt nAChR) | Emax (hα7-wt nAChR) [%]
CCNC(=O)Cn1nc(Nc2cc(OC)cc(C(F)(F)F)c2)cc1-c1ccnc(C)c1C [compound 51] | 2 | 5.48 | –
COCc1cc(-c2cc(Nc3ccc4c(c3)OC(F)(F)O4)nn2CCC(=O)N(C)C)ccn1 [compound 96] | 3 | 6.74 | –
Cc1cc(-c2cc(Nc3cc(F)c(F)c(F)c3)nn2CC(=O)NCC2CC2)ccn1 [compound 168] | 2 | 6.58 | 778
CCNC(=O)Cn1nc(Nc2ccc3c(c2)OC(F)(F)O3)cc1-c1ccnc(C)c1 [compound 93] | 2 | 6.00 | –
CC[C@H](O)Cn1nc(Nc2ccc(F)c(F)c2)cc1-c1ccnc(C)c1 [compound 45] | 1 | 5.91 | 800
CC[C@H](O)Cn1nc(Nc2cc(OC)cc(C(F)(F)F)c2)cc1-c1ccnc(C)c1C [compound 53] | 0 | 5.97 | 482
CCNC(=O)Cn1nc(Nc2ccc(F)c(F)c2F)cc1-c1ccnc(C)c1 [compound 125] | 2 | 6.03 | 972
Cc1cc(-c2cc(Nc3cccc(Cl)c3F)nn2CCC(=O)N(C)C)cc(C)n1 [compound 173] | 1 | 6.87 | 401
CNC(=O)Cn1nc(Nc2cccc(C(F)(F)F)c2)cc1-c1ccc2c(c1)OCCO2 [compound 76] | 4 | 6.46 | –
CNC(=O)Cn1nc(Nc2cccc(C(F)(F)F)c2)cc1-c1ccnc(C)c1 [compound 32] | 2 | 5.37 | –
Cc1cnccc1-c1cc(Nc2cc(F)cc(C(F)(F)F)c2)nn1CCC(=O)N(C)C [compound 9, 3-[[3-fluoro-5-(trifluoromethyl)phenyl]amino]-N,N-dimethyl-5-(3-methyl-4-pyridinyl)-1H-pyrazole-1-propanamide] | 4 | 5.99 | –
Cc1cnccc1-c1cc(Nc2ccc3c(c2)OC(F)(F)O3)nn1CCC(=O)N(C)C [compound 90] | 4 | 6.04 | –
Cc1cc(-c2cc(Nc3cccc(OC(F)(F)F)c3)nn2CCC(=O)N(C)C)cc(C)n1 [compound 165] | 1 | 6.44 | 738
Cc1cc(-c2cc(Nc3ccc4c(c3)OC(F)(F)O4)nn2CCC(=O)N(C)C)cc(C)n1 [compound 157] | 2 | 6.44 | 503
Cc1cc(-c2cc(Nc3cccc(Cl)c3F)nn2CCC(=O)N(C)C)ccn1 [compound 124] | 1 | 6.01 | –
Cc1cc(-c2cc(Nc3ccc(F)c(F)c3)nn2CCC(=O)N(C)C)cc(C)n1 [compound 119] | 2 | 5.96 | –
CCNC(=O)Cn1nc(Nc2ccc(F)c(C(F)(F)F)c2)cc1-c1ccc(C)nc1 [compound 27] | 2 | 5.94 | –
